{"source": "patent US20200121618A1", "about": "“METHODS AND COMPOSITIONS FOR TREATMENT OF INFLAMMATION AND OXIDATIVE STRESS” (BIOELECTRON TECHNOLOGY CORPORATION, priority 2017, published 2020)", "key": {"Male C57BL/6 mice": {"test_system": "Male C57BL/6 mice", "assay": "APAP-induced liver damage in mice, serum liver enzymes ALT and AST", "type": "in vivo", "details": "for mean serum concentration of liver enzyme (ALT) versus APAP alone: 300 mg/kg SC pre-dosing for 4 days", "protocol": "Compounds described herein were tested to determine their effects on liver enzyme concentrations following introduction of APAP in sufficient quantity to cause liver trauma.\nMale C57BL/6 mice (Charles River Laboratories), aged 10-12 weeks, were randomly and prospectively assigned to receive treatment with either a test compound or vehicle only. Prior to commencement of testing, the animals had been pre-dosed with a test compound of either EPI-A0001 ((RRR)-alpha tocopherol quinone) or EPI-743 (REE)-alpha tocotrienol quinone) via subcutaneous injection for 4 days at levels of 300 mg/kg body weight dose(s). One additional test compound was administrated at 4 hours prior to commencement of testing. The mice were fasted for 12 hours prior to being challenged with 300 mg/kg body weight with APAP or an equal volume of the dosing vehicle (sterile saline) via […].\nThe animals were each administered with a single subcutaneous (SC) 300 mg/kg body weight dose of APAP or vehicle only formulation as described herein. All animals were dosed at approximately the same time on the dosing day (±1 hour). Subcutaneous doses were administered via bolus injection between the skin and underlying layers of tissue in the scapular region on the back of each animal. The hair was not clipped from the injection site prior to dosing. The injection site was monitored for necrosis and other changes to the skin and hair.\nAt the time of sample collection, livers were collected for histopathology and metabolomics analyses and blood was collected for metabolomics analyses or separated into serum for the liver enzyme (AST, ALT) analyses."}, "[1]": {"test_system": "Human Aortic Endothelial Cells (HAEC) stimulated with IL-1β", "assay": "Suppression of cytokine release from IL-1β-stimulated endothelial cells (Meso Scale)", "type": "cell-based", "details": "for drop in levels of IL-6: versus DMSO control and alpha-tocopherol, Donors 1 and 2; for difference in cytokine suppression between diastereomers: A0001-RRR versus A0001-SRR", "protocol": "Human Aortic Endothelial Cells (HAEC) stimulated with IL-1β result in the secretion of pro-inflammatory cytokines IL-6, IL-8 and MCP-1 as described in Wu et al., Atherosclerosis 147, 297-307 (1999). The detection of these secreted cytokines in the presence or absence of compounds was performed using Meso Scale technology.\nHAEC cells from two donors (Catalog no. 2535), EGM-2 media with BulletKit supplements (Catalog no. 3162) were purchased from Lonza. IL-1β (Catalog no. 200-01B) was purchased from Peprotech. Custom MSD U-plex plates with assays to detect IL-6, IL-8 and TNF-α (Catalog no. K15067L) were purchased from Meso Scale Discovery. The cells were grown in tissue culture-treated flasks according to Lonza's instructions.\nTest samples were supplied in 1.5 mL glass vials. The compounds were diluted with an appropriate volume of DMSO to result in a 10 mM stock solution. Once dissolved, they were stored at −20° C.\n(§1) HAEC cells were cultured and used at passage 6. Cells were seeded in clear bottom, black wall 96-well tissue culture-treated polystyrene plates by resuspending a cell suspension at a density of 150,000 cells/mL in growth medium, then dispensing 100 microliters of cell suspension per well using an electronic multichannel pipette, corresponding to 15,000 cells/well (one plate per donor). The cell-containing plates were incubated 3 hours at 37° C. in an atmosphere with 95% humidity and 5% CO2 to allow attachment of the cells to the culture plate.\n(§2) Test compounds were then added to varying final concentrations using the Tecan D300e Digital Dispenser, with subsequent back-filling with DMSO diluent to a final concentration of 0.6% (v/v). Cell plates were incubated for 20 hours at 37° C. in an atmosphere of 5% CO2 and 95% humidity.\nIL-1β was then added to a final concentration of 10 nanograms/mL and then cell plates were incubated at 37° C. in an atmosphere of 5% CO2 and 95% humidity for 6 hours. Media was collected in a separate polypropylene plate, foil sealed and frozen at −80° C. for up to 96 hours.\nFrozen media samples were thawed on ice and IL-6, IL-8 and TNF-alpha were measured using the Meso Scale multiplex assay according to the manufacturer's instructions. Included on each MSD plate was a dilution of IL-6, IL-8 and TNF-alpha standards to accurately quantify the secreted proteins in the media."}, "[2]": {"test_system": "Human Aortic Endothelial Cells (HAEC)", "assay": "Cell viability via normalized ATP levels in HAEC", "type": "cell-based", "details": "higher dosing levels; 6 hours; Donors 486 and 662; FIGS. 13 and 14", "protocol": "as §1, §2\nFIGS. 7-14 present an expanded array of pro-inflammatory cytokines, including IL-6, IL-8, and TNFa (Tumor Necrosis Factor alpha). […] In these figures, GT is gamma-tocopherol, and DT is delta-tocopherol."}, "[3]": {"assay": "Miscibility / solubility description", "type": "physicochemical"}, "[4]": {"details": "4 hours, APAP 300 mg/kg, FIG. 1"}, "[5]": {"details": "24 hours, 300 mg/kg SC pre-dosing, APAP 300 mg/kg, FIGS. 3 and 4"}}, "data": [{"compound": "CC1=C(C)C(=O)C(CCC(C)(O)CCCC(C)CCCC(C)CCCC(C)C)=C(C)C1=O", "note": "(stereo not drawn) [A0001, RRR-alpha tocopherol quinone]", "values": [{"measurement": "mean serum concentration of liver enzyme (ALT) versus APAP alone", "setting": "Male C57BL/6 mice; [4]", "result": "reduction in mean serum concentrations"}, {"measurement": "mean serum concentration level of ALT and AST versus APAP alone (G4)", "setting": "Male C57BL/6 mice; [5]", "result": "reduction in mean serum concentration level"}, {"measurement": "IL-6 suppression", "setting": "[1]; 7.5 μM, 6 hours IL-1β", "result": "no longer evident"}, {"measurement": "suppression of IL-6 levels", "setting": "[1]; 15 μM, 6 hours IL-1β, compared with 60 μM and 30 μM", "result": "not as dramatic"}, {"measurement": "drop in levels of IL-6", "setting": "[1]; 30 μM, 6 hours IL-1β", "result": "> 50", "unit": "%"}, {"measurement": "drop in levels of IL-6", "setting": "[1]; 60 μM, 6 hours IL-1β", "result": "> 50", "unit": "%"}, {"measurement": "dose dependence of IL-6 suppression", "setting": "[1]; 7.5-60 μM, 6 hours, FIGS. 5 and 6", "result": "dosing dependent effect"}, {"measurement": "difference in cytokine suppression between diastereomers", "setting": "[1]; 6 hours, Donors 486 and 662", "result": "small variation"}, {"measurement": "suppression of the various cytokines (IL-6, IL-8, TNFa)", "setting": "[1]; 6 hours, Donors 486 and 662, FIGS. 7-12", "result": "dose dependent suppression"}, {"measurement": "effect on cell viability via normalized ATP levels", "setting": "[2]", "result": "only a slight effect"}, {"measurement": "miscibility with other oils", "setting": "[3]", "result": "infinitely miscible"}, {"measurement": "solubility in aqueous solvents", "setting": "[3]", "result": "practically insoluble"}]}, {"compound": "CC1=C(C)C(=O)C(CC[C@@](C)(O)CCC[C@H](C)CCC[C@H](C)CCCC(C)C)=C(C)C1=O", "note": "[A0001-SRR]", "values": [{"measurement": "difference in cytokine suppression between diastereomers", "setting": "[1]; 6 hours, Donors 486 and 662", "result": "small variation"}]}, {"compound": "CC(=O)Nc1ccc(O)cc1", "note": "[APAP, Acetaminophen, reference compound]", "values": [{"measurement": "mean level of ALT in serum after APAP introduction", "setting": "Male C57BL/6 mice; APAP 300 mg/kg alone (G3), 4 hours, FIG. 1", "result": "approximately 3000 U/L"}, {"measurement": "mean level of AST in serum after APAP introduction", "setting": "Male C57BL/6 mice; APAP 300 mg/kg alone (G3), 4 hours, FIG. 2", "result": "~3200", "unit": "U/L"}]}, {"compound": "CC(C)=CCC/C(C)=C/CC/C(C)=C/CCC(C)(O)CCC1=C(C)C(=O)C(C)=C(C)C1=O", "note": "(stereo not drawn) [EPI-743, REE-alpha tocotrienol quinone]", "values": [{"measurement": "mean serum concentration of liver enzyme (ALT) versus APAP alone", "setting": "Male C57BL/6 mice; [4]", "result": "reduction in mean serum concentrations"}, {"measurement": "share of animals with AST levels near zero", "setting": "Male C57BL/6 mice; 4 hours, 300 mg/kg SC pre-dosing, APAP 300 mg/kg, 3 of 10, FIG. 2", "result": 30, "unit": "%"}, {"measurement": "share of animals with ALT near zero", "setting": "Male C57BL/6 mice; 4 hours, 300 mg/kg SC pre-dosing, APAP 300 mg/kg, 4 of 10, FIG. 1", "result": 40, "unit": "%"}, {"measurement": "individual ALT and AST data points", "setting": "Male C57BL/6 mice; [5]", "result": "several data points at or near zero"}, {"measurement": "mean serum concentration level of ALT and AST versus APAP alone (G4)", "setting": "Male C57BL/6 mice; [5]", "result": "reduction in mean serum concentration level"}]}]}
